# From publication PMC10747599 (Viruses, 2023)
# Columns and labels:
# [1] = test system: SLEV infection in Vero CCL81 cells; type: cell-based, St. Louis encephalitis virus (SLEV BeH 355964); details: 20 µM
# SLEV [2] = experiment: Viral load by plaque-forming assay, SLEV-infected Vero CCL81; type: cell-based, St. Louis encephalitis virus (SLEV BeH 355964); details: Vero CCL81, MOI 0.1
# SLEV [3] = experiment: Viral load by plaque-forming assay, SLEV-infected HBEC-5i; type: cell-based, St. Louis encephalitis virus (SLEV BeH 355964)
# Huh-7 cells = experiment: MTT cell viability assay, Huh-7; details: Huh-7, 48 h; for loss/reduction in cell viability vs vehicle-treated cells: 20 µM
# [4] = MTT cell viability assay, HBEC-5i; details: human, HBEC-5i cells
# Vero CCL81 cells [5] = experiment: Confirmatory dose-response assay, cytotoxicity (CC50); details: Vero CCL81, dose-response 100 to 0.32 µM
# [6] = as above; details: African green monkey, Vero CCL81 cells
# [7] = test system: SLEV infection in Vero CCL81 cells; experiment: microbe, parasite or virus in culture; type: cell-based, St. Louis encephalitis virus (SLEV BeH 355964); details: for EC50: St. Louis encephalitis virus, 72 h
# HBEC-5i cells = experiment: MTT cell viability assay, HBEC-5i; details: HBEC-5i; for reduction in cell viability / toxicity: 20 µM, 48 h; for toxicity at lower concentrations: 20 µM to 2.5 µM, MOI 0.1, 48 h (Figure 5)
# Vero CCL81 cells [8] = experiment: MTT cell viability assay, Vero CCL81
# SLEV [9] = experiment: Viral load by plaque-forming assay, SLEV-infected Huh-7; type: cell-based, St. Louis encephalitis virus (SLEV BeH 355964); details: Huh-7, MOI 0.1, 48 h
SMILES,"inhibition of SLEV-induced CPE (hit call, cytoprotective effect) [1]","reduction in viral titers in culture supernatant (SLEV [3]; 20 µM, MOI 0.1, 48 h)",loss/reduction in cell viability vs vehicle-treated cells (Huh-7 cells),CC50 (Vero CCL81 cells [5]),CC50 at 72 h [6],EC50 [7],reduction in cell viability / toxicity (HBEC-5i cells),other results
NCCc1cn(S(=O)(=O)c2c(Cl)nc3sccn23)c2ccccc12 [SAX-187],cytoprotective effect,–,–,–,–,–,–,–
COc1cccc(-c2ccc(NC(=O)C3=C(C(=O)O)CCC3)c(F)c2)c1 [Vidofludimus],cytoprotective effect,No antiviral activity,approx. 10%,least cytotoxic,> 100 µM,8.2 µM,–,"reduction in viral load relative to vehicle-treated controls (SLEV [2]; 20 µM): approximately 10 fold; viability at 48 h, 20 µM [4]: ≤ 90%"
CC[C@@H]([C@H](C)O)n1ncn(-c2ccc(N3CCN(c4ccc(OC[C@@H]5CO[C@@](Cn6cncn6)(c6ccc(F)cc6F)C5)cc4)CC3)cc2)c1=O [Posaconazole],cytoprotective effect,–,50%,least cytotoxic,> 100 µM,0.4 µM,approximately 70%,"reduction in cell viability (Vero CCL81 cells [8]; 20 µM, Vero CCL81, vs non-treated controls): 40%; Selectivity Index (SI, CC50/EC50 ratio) ([7]; Vero CCL81): ≥ 12"
OCCN1CCN(CCCN2c3ccccc3Sc3ccc(C(F)(F)F)cc32)CC1 [Fluphenazine],cytoprotective effect,> 100 fold,90%,–,30.2 µM,–,not toxic,"reduction in viral load (SLEV [3]; 20 µM, MOI 0.1, 48 h, concentration series (Figure 5)): over 50 fold; toxicity at lower concentrations (HBEC-5i cells): not toxic"
"C[C@@H]1CCCN1CCc1cc2cc(-c3ccc(C#N)cc3)ccc2o1 [ABT-239, 4-(2-{2-[(2R)-2-Methylpyrrolidinyl]ethyl}-benzofuran-5-yl)benzonitrile]",cytoprotective effect,approx. 10 fold,approx. 10%,–,80.2 µM,3.4 µM,not toxic,reduction in viral load relative to vehicle-treated controls (SLEV [2]; 20 µM): approximately 10 fold
FC(F)(F)c1ccc(CNc2ccc(Cc3c[nH]c4ncc(Cl)cc34)cn2)cn1 [Pexidartanib],cytoprotective effect,–,–,–,–,–,–,–
"C[C@@]1(O)[C@H](O)[C@@H](CO)O[C@H]1n1ccc2c(N)ncnc21 [7DMA, 7-deaza-2′-C-methyl-D-adenosine]",–,–,–,least cytotoxic,> 100 µM,5.1 µM,–,"reduction in viral load relative to vehicle-treated controls (SLEV [2]; 40 µM (7DMA)): approximately 10 fold; reduction in cell viability vs vehicle-treated cells (Huh-7 cells; 40 µM (7DMA)): approx. 10%; reduction in viral load (SLEV [9]; 40 µM (7DMA)): 10 fold; reduction in cell viability (Vero CCL81 cells [8]; 40 µM (7DMA), Vero CCL81): less than 10%"
CCN(CC)CCOc1ccc(C(O)(Cc2ccc(Cl)cc2)c2ccc(C)cc2)cc1 (stereo not shown) [Triparanol],cytoprotective effect,–,90%,–,18.5 µM,0.9 µM,~60%,"antiviral effect (viral load) (SLEV [3]; 2.5 µM, MOI 0.1, 48 h (Figure 5)): lost; antiviral effect (viral load) (SLEV [3]; 5 µM, MOI 0.1, 48 h (Figure 5)): lost; reduction in viral load vs vehicle-treated infected group (SLEV [3]; 10 µM, MOI 0.1, 48 h (Figure 5)): over 10 fold; toxicity at lower concentrations (HBEC-5i cells): not toxic"
CCCCc1oc2ccccc2c1C(=O)c1cc(I)c(OCCN(CC)CC)c(I)c1 [Amiodarone],cytoprotective effect,over 10 fold,approx. 10%,–,–,–,–,reduction in viral load (SLEV [9]; 20 µM): not significant
